Columns and labels:
hAT1R [1] = molecular target: T1, hAT1R (Homo sapiens, UniProt P30556); assay: BRET β-arrestin2 biosensor assay, higher receptor expression (hAT1R 5 ng/well), HEK293 cells; format: cell-based; conditions: for EC50: High AT1R Expression
T1 sequence (P30556 1-359): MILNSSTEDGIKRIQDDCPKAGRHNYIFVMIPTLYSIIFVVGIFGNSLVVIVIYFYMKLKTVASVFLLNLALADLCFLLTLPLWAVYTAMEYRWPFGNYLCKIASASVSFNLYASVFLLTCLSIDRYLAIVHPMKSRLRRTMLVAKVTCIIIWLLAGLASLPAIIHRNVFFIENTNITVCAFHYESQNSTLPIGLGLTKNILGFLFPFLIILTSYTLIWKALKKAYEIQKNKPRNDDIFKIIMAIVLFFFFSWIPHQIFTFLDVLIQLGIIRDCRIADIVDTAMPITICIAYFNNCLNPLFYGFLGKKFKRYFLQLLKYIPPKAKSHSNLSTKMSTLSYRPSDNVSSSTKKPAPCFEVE

hAT1R [2] = molecular target: T1, hAT1R; assay: cell-based; conditions: agonist mode; for EC50: read-out: BRET P63 EC50
AGTR1 [3] = molecular target: T2, AGTR1 (Homo sapiens, UniProt P30556); assay: DiscoveRx β-arrestin2 recruitment assay (enzyme complementation, Pathunter CHO-K1 AGTR1 β-arrestin cell line); format: cell-based; conditions: DiscoveRx β-arrestin2 recruitment; for DiscoveRx β-arrestin2 Ymax (%): maximal response
T2 construct: host or cells: Pathunter CHO-K1 AGTR1 β-arrestin cell line (CHO-K1)
T2 sequence (P30556 1-359): T1 sequence (P30556 1-359)
Method in brief: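 CHO-K1 cells expressing AGTR1 with β-arrestin2 enzyme-complementation reporter, plated 14-16 h ahead in 1% serum medium, then exposed to compounds for 90 min at 37° C. Chemiluminescence read after 1 h detection. EC50 (agonist) or IC50 (antagonist) from 4-parameter logistic fit; activity as percentage of All maximal effect.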

AGTR1 [4] = molecular target: T2, AGTR1; assay: DiscoveRx IP1 accumulation assay (HTRF), agonist mode, Pathunter CHO-K1 AGTR1 β-arrestin cell line; format: cell-based; conditions: for EC50: read-out: IP-1 EC50
Method in brief: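 Agonist mode in CHO-K1 AGTR1 β-arrestin cells plated 14-16 h before; compounds at varying concentrations for 90 min at 37° C, IP1 accumulation read by HTRF (D2-conjugate and anti-IP1 cryptate, 20 min room temperature). EC50 from 4-parameter logistic fit; activity given as percentage of maximal AII effect.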

hAT1R [5] = molecular target: T1, hAT1R; assay: cell-based; conditions: section of the 42nd table ending at r951, example numbering restarts after the DiscoveRx section; read-out: β-arrestin2 EC50
hAT1R [6] = molecular target: T1, hAT1R; assay: BRET Gq biosensor assay, agonist response, HEK293 cells; format: cell-based; conditions: section of the 42nd table directly before the BRET P63 section
Description: BRET β-arrestin2 and Gq Activation Assays
In another aspect of the invention, association of the ATIR with signaling proteins is assessed using bioluminescence resonance energy transfer assays (Stephane Angers, Ali Salahpour et al. 2002). This technology measures the association between bioluminescent and fluorescent protein tags.
Several of the plasmid constructs used in BRET experiments were previously described. Briefly, the coding sequence of β-arrestin2 was fused to Renilla luciferase II to generate β-arrestin2-Rluc (Quoyer, Janz et al. 2013). The membrane targeting motif from K-Ras, CAAX motif (GKKKKKKSKTKCVIM), was fused to Renilla GFP to create rGFP-CAAX plasmid (Namkung Y et al., Nat Commun (2016) 7, 12178). The Renilla luciferase II was inserted in the Gaq protein to generate Gaq-Rluc (Breton, Sauvageau et al. 2010). The Gγ1 protein was tagged with GFP10 to obtain GFP-Gyl, using the same strategy described previously for GFP-Gy2 (Gales, Rebois et al. 2005). The Gaq binding domain of the p63RhoGEF protein (amino acids 295-502) was fused to Renilla luciferase II to create P63-Rluc. Finally, the hAT1R plasmid construct encoding the receptor was generated by optimizing the coding sequence of human angiotensin II receptor (GeneOptimizer from ThermoFisher), and adding an artificial cleavable signal peptide from bovine prolactin ([…]) in N-terminus of the receptor to increase cell surface expression.
Gq Biosensor Assay HEK293 cells were cultured in DMEM supplemented with Penicillin-Streptomycin and 10% fetal bovine serum. Two days before the BRET experiment, HEK293 cells were transfected with hAT1R expression plasmid (200 ng/well) as well as Gaq-Rluc (100 ng/well), Gβ1 (375 ng/well) and GFP-Gγ1 (625 ng/well), using linear polyethylenimine 25 kDa (PEI) at a PEI:DNA ratio of 3:1. Transfected cells were directly seeded in 96-well plates, at a density of 35 000 cells per well, and maintained in culture for the next 48 h.
BRET experiments were carried out subsequently using the following procedures: cells were washed once with Tyrode's buffer (137 mM NaCl, 1 mM CaCl2, 0.9 mM KCl, […], 3.6 mM NaH2PO4, 5.5 mM glucose, 12 mM NaHCO3, and 25 mM HEPES, pH 7.4) and 90 μl of Tyrode's buffer was added to each well. Cells were equilibrated in their new buffer at room temperature for at least 30 minutes. Following the equilibration period, the coelenterazine substrate was first added to the cells, 10 μl per well of a 10×solution (prolume purple coelenterazine at a final concentration of 2 μM), immediately followed by compound addition using the HP D300 digital dispenser from Tecan (10 singlicate concentrations). Cells were incubated for 5 min at room temperature and BRET readings were then collected using a Synergy Neo Multi-Mode reader from BioTek with BRET2 filters 410/515, to record agonist response. […] A second reading was collected 5 min after this second addition, using the Synergy Neo Multi-Mode reader from BioTek with BRET2 filters 410/515, to record antagonist response. The BRET signal was determined by calculating the ratio of the light emitted by GFP (515 nm) over the light emitted by the Rluc (410 nm). To analyze agonist response, BRET signal values were converted into percentage of activation using the non-stimulated control as 0% and AngII maximal response as 100%. Sigmoidal concentration-response curves were generated with those normalized values using a 4-parameter logistic equation (IDBS ActivityBase software), to determine EC50 of the different compounds. In the case of antagonist response analysis, BRET signal values were converted into percentage of inhibition using the fixed dose of AngII (corresponding to the EC50) as 0% and non-stimulated control as 100%. Sigmoidal concentration-response curves were generated with those normalized values using a 4-parameter logistic equation (IDBS ActivityBase software), to determine IC50 of the different compounds.

EC50 (hAT1R [6]) | SMILES | BRET β-Arrestin2 High AT1R Expression Ymax (%) (hAT1R [1]) | EC50 (hAT1R [1]) | BRET P63 Ymax (hAT1R [2]) | EC50 (hAT1R [2]) | EC50 (AGTR1 [3]) | DiscoveRx β-arrestin2 Ymax (%) (AGTR1 [3]) | IP-1 Ymax (%) (AGTR1 [4]) | EC50 (AGTR1 [4]) | EC50 (hAT1R [5])
– | CCc1nc2c(C)cc(C)nc2n1Cc1ccc(-c2cc(Oc3ncccc3F)ccc2-c2nn[nH]n2)cc1 [Example 253] | 85.3% | 17.9 nM | 12.6% | 38.3 nM | 31.2 nM | 37.2% | 18.7% | 133 nM | 46 nM
– | CCc1nc2c(C)cc(C)nc2n1Cc1ccc(-c2cc(Oc3cc(F)ccn3)ccc2-c2nn[nH]n2)cc1 [Example 254] | 75.6% | 20 nM | 7.1% | 39.9 nM | 35.8 nM | 26.9% | 30.0% | 177 nM | 59.1 nM
– | CCc1nc2c(C)cc(C)nc2n1Cc1ccc(-c2cc(Oc3ncccc3Cl)ccc2-c2nn[nH]n2)cc1 [Example 255] | 80.2% | 24.3 nM | 6.0% | 22.5 nM | 123 nM | 26.3% | 7.8% | 471 nM | 87.8 nM
– | CCc1nc2c(C)cc(C)nc2n1Cc1ccc(-c2cc(Oc3cccnc3)ccc2-c2nnn[nH]2)cc1 [Example 257] | 87.3% | 10 nM | 10.8% | 23.7 nM | 9 nM | 34.9% | 10.7% | 28.3 nM | 29.1 nM
– | CCc1nc2c(C)cc(C)nc2n1Cc1ccc(-c2cc(Oc3cncnc3)ccc2-c2nnn[nH]2)cc1 [Example 258] | 75.7% | 41.5 nM | 17.5% | 140 nM | 23.1 nM | 35.2% | 15.1% | 42.8 nM | 81.9 nM
– | CCc1nc2c(C)cc(C)nc2n1Cc1ccc(-c2cc(Oc3cncc(C)c3)ccc2-c2nn[nH]n2)cc1 [Example 260] | 87.9% | 7.8 nM | – | > 100000 nM | 51.7 nM | 36.4% | 18.5% | 175 nM | 49.9 nM
27.3 nM | CCOc1nc2cccc(C(=O)O)c2n1Cc1ccc(-c2cc(-c3ccc(OC)cn3)ccc2-c2noc(=O)[nH]2)cc1 [Example 308] | – | – | – | – | 29.1 nM | 51.8% | – | – | –
787 nM | CCOc1nc2cccc(C(=O)O)c2n1Cc1ccc(-c2cc(N3CC(C)(C)c4ccccc43)ccc2C(=O)O)cc1 [Example 319, 1-((2′-carboxy-5′-(3,3-dimethylindolin-1-yl)-[1,1′-biphenyl]-4-yl)methyl)-2-ethoxy-1H-benzo[d]imidazole-7-carboxylic acid] | – | – | – | – | 71.1 nM | 49.0% | – | – | –
